Test results reported in patent US9018173B2, “Materials and methods for suppressing inflammatory and neuropathic pain” (Indiana University Research and Technology Corp., priority 2010, dated 2015).
Residues, ends and D or L forms follow the SMILES beside them.

Assays:
[1] = system: capsaicin-evoked nocifensive behavior; experiment: Capsaicin eye-wipe test; assay type: in vivo, rat; conditions: peptide alone
Description: Referring now to FIG. 16. TAT-CBD3 reduces acute, inflammatory and neuropathic pain. (FIG. 16A) Time course of number of flinches following subcutaneous (dorsal surface of paw) injection of formalin (2.5%; 50 μl saline) in animals pretreated with peptides (3-100 μM; 20 μl dorsal surface of paw) 30 min before formalin (n=4-10). (FIG. 16B) The effect of peptides on number of flinches on formalin-induced phase 1 (0-10 min) and phase 2 (15-60 min). *, p<0.05 versus formalin-injected animals. (FIG. 16C) Formalin induces paw edema. Paw thickness was measured 1 h after injection of saline, formalin, and formalin+peptides (100 μM). *, p<0.05 versus saline-injected animals. (FIG. 16D) Pretreatment with TAT-CBD3 attenuates capsaicin-evoked nocifensive behavior. […]
Eye-wipe test. […] TAT CBD3 peptide, TAT control peptide or vehicle was pipetted directly into the right eye in a volume of 40 μl and the resulting nocifensive behavior was measured. […] This nocifensive behavior was recorded for five minutes and followed by capsaicin (3 μM in 40 μl saline) application into the pretreated eye. Nocifensive behavior was again quantified for 5 minutes following capsaicin application, as described previously. […] Significant differences between groups were assessed by two-way analysis of variance with Bonferroni post-tests. Data were analyzed with GraphPad Prism 4.0 (GraphPad, San Diego, Calif., USA). […]

[2] = system: CaV2.2 cytosolic loop 1 (L1) and distal C-terminus (Ct-dis); experiment: Surface plasmon resonance binding to CaV2.2 L1- and Ct-dis-GST fusion proteins; design: species or system rat; conditions: peptide 1/3/5 μM
Excerpt: In Vitro Protein Binding Assays. Using Vector NTI (v. 11; Invitrogen) software, primers were designed to amplify regions corresponding to the first cytoslic loop (L1; amino acids 356 to 483) and the distal end of the C-terminus (Ct-dis; amino acids 2133 to 2348) of rat CaV2.2 cDNA from P3 rat brain cDNA. The primers harbored restriction sites (Bam HI or Bgl II (5′) and Eco RI or Mfe I (3′)) to facilitate cloning into […]. In addition to the GST-tag, this vector contains the Glu tag, a sequence of six amino acids (EYMPME). Correctly-amplified PCR products and parent pGex-3x-Glu vector were digested with the indicated restriction enzymes, and then extracted following electrophoresis on an agarose gel. The extracted DNAs were quantified (Nanodrop 1000, Thermo Scientific), and ligations were performed using 6:1 and 3:1 insert to vector molar ratios. […]
Surface Plasmon resonance (SPR). Binding analyses between TAT CBD3 or TAT control peptides and CaV2.2 L1- or Ct-dis-GST fusion proteins was determined by surface plasmon resonance using a BIAcore3000 instrument (Biacore AB, Uppsala, Sweden). […]
Biochemistry and immunocytochemistry experiments. […] The binding between TAT CBD3 or TAT control peptides and CaV2.2 L1- or Ct-dis-GST fusion proteins was determined by surface plasmon resonance using a BIAcore3000 instrument (Biacore AB, Uppsala, Sweden).

[3] = system: cortical layer V pyramidal neurons; experiment: Cortical slice recordings of evoked EPSCs; assay type: cell-based, CD1 mice; conditions: 10 μM

Q: Which “nocifensive behavior on application alone to the cornea” value [1] does the source give for CC(C)C[C@H](NC(=O)CNC(=O)[C@H](CCCNC(=N)N)NC(=O)[C@@H]1CCCN1C(=O)[C@@H](NC(=O)CNC(=O)[C@H](CCCNC(=N)N)NC(=O)[C@H](CC(C)C)NC(=O)[C@H](CCC(=O)O)NC(=O)[C@H](C)NC(=O)[C@H](CC(C)C)NC(=O)[C@H](CCCNC(=N)N)NC(=O)[C@H](CO)NC(=O)[C@H](CCCNC(=N)N)NC(=O)[C@H](C)NC(=O)[C@H](CCCNC(=N)N)NC(=O)[C@H](CCCNC(=N)N)NC(=O)[C@H](CCCNC(=N)N)NC(=O)[C@H](CCC(N)=O)NC(=O)[C@H](CCCNC(=N)N)NC(=O)[C@H](CCCNC(=N)N)NC(=O)[C@H](CCCCN)NC(=O)[C@H](CCCCN)NC(=O)[C@H](CCCNC(=N)N)NC(=O)CNC(=O)[C@@H](N)Cc1ccc(O)cc1)C(C)C)C(=O)O [TAT-CBD3] (H-YGRKKRRQRRRARSRLAELRGVPRGL-OH; N-terminus and C-terminus assumed) here?
A: did not induce nocifensive behavior

Q: With ARSRLAELRGVPRGL (CBD3) as the compound, how does the “binding to immobilized L1 and Ct-dis proteins (surface plasmon resonance)” value [2] read?
A: bound to immobilized L1 and Ct-dis proteins

Q: And the “paired-pulse ratio (PPR)” value [3]?
A: increased pair pulse ratios
